Reference: US20150080462A1, “COMPOSITIONS AND METHODS FOR THE TREATMENT OR PREVENTION OF DISORDERS RELATING TO OXIDATIVE STRESS” (THE JOHNS HOPKINS UNIVERSITY, priority 2005, published 2015)
“Also recorded” adds a separate entry of the source. Blank lines part the entries; values can stand above or below the molecule they belong to. *1 amine or outer side, *2 acyl side, *3 side chain or, on linkers, in order; H or OH if unused. Where a SMILES comes first, the peptide text is derived from it. Bridges are numbered along the chain shown (N, C = ends). Roman numbers before positions name the chains, in order. [ ]: non-standard residue; d: D form. Actinocin(9to1) = Cc1c2oc3c(C)ccc(C(=O)[*:1])c3nc-2c(C(=O)[*:2])c(N)c1=O; NMeV = CN[C@H](C(=O)O)C(C)C; Sar = CNCC(=O)O

How the values were obtained:
caspase-3 = test: Caspase-3/7 assay in cortical neurons; format: cell-based, mouse; settings: for caspase-3 activity: cortical neurons, t-BuOOH 60 μM, NMDA 100 μM, glutamate 300 μM
Nrf2 = settings: cortical neurons; t-BuOOH 60 μM, NMDA 100 μM, glutamate 300 μM; up to 360 minutes
HO-2 = HO-2 protein expression in cortical neurons (Western blot); settings: 8 h
[1] = tested on: NADPH-cytochrome P450 reductase (CP450R); test: NADPH-cytochrome P450 reductase protein expression in cortical neurons (Western blot); settings: 8 h
primary cortical neurons [2] = tested on: primary cortical neurons
primary cortical neurons [3] = test: Neuronal viability by MTT assay (t-BuOOH, NMDA, glutamate with or without t-BHQ); settings: 24 hours
[4] = tested on: mouse cortical neuronal cells; test: H2O2-induced cytotoxicity in primary neurons (MTT); format: cell-based; settings: SnPPIX 5 μM
Procedure: After 10 d in culture, mouse primary neurons were pre-treated with EGb 761 (10, 50, or 100 μg/ml) for 6 h, and then treated for 18 h with H2O2 (20 μM) or vehicle (control) with or without 5 μM HO inhibitor (SnPPIX, Porphyrin Products, Inc., (Logan, Utah). Cell survival was evaluated by the 3-(4,5-dimethylthiazol-2-yl)-2,5-diphenyl tetrazolium bromide (MTT) colorimetric assay.
(§1) Neuronal survival was assessed and quantified with the MTT colorimetric assay. […] The optical density was determined at 570 nm. Cell viability of the vehicle-treated control group was defined as 100%, and MTT optical density in the treated groups was expressed as a percent of control.

[5] = tested on: mouse cortical neuronal cells; test: Glutamate-induced cytotoxicity in primary neurons (MTT); format: cell-based; settings: SnPPIX 5 μM; CHX 10 μM
Procedure: Mouse primary neurons cultured for 14 d were pre-treated for 6 h with EGb 761 (100 μg/ml). […] Neurons were incubated for an additional 18 h, and the MTT assay was used to estimate the cell survival. Experimental conditions were conducted in quadruplicate and repeated four times with different batches of primary cultures.
as §1

HO-1 = HO-1 protein expression in cortical neurons (Western blot); settings: cortical neurons pretreated 1 h with CHX or ATD, then 100 μg/ml EGb 761
NF-κB = format: cell-based, mouse; settings: nrf2−/− MEFs pretreated 1 h with NAC (10 mM) or GSH-MEE (1 mM), then LPS (0.5 μg/ml) or TNF-α (10 ng/ml) 3 h
[6] = tested on: OVA challenged Nrf2−/− mice; test: Lung histology (H&E) of OVA challenged mice pretreated with NAC; settings: OVA challenged (1st challenge) Nrf2−/− mice, NAC 7 days before challenge
nrf2−/− and nrf2+/+ mice = test: LPS induced septic shock mortality, NAC pretreatment; format: in vivo; settings: LPS 1.5 mg per mouse
[7] = tested on: OVA challenged Nrf2−/− mice; test: BAL fluid inflammatory cell counts in OVA challenged mice pretreated with NAC

caspase-3 activity (caspase-3): induced an increase
SMILES: N[C@@H](CCC(=O)O)C(=O)O [glutamate]
Nrf2 in the cytosolic fraction (Nrf2): no effect | Nrf2 in the nuclear fraction (Nrf2): no effect

SMILES: CC(C)(C)[C@]1(O)CC2OC(=O)CC23C(=O)OC2OC(=O)[C@H](O)C231 (some centres unmarked) [bilobalide]
HO-2 expression level (HO-2): do not affect | NADPH-cytochrome P450 reductase (CP450R) protein expression [1]: do not affect

increase in caspase-3 activity evoked by t-BuOOH, NMDA and glutamate (caspase-3; t-BHQ 20 μM): prevent the increase
SMILES: CC(C)(C)c1cc(O)ccc1O [t-BHQ, tert-butylhydroquinone]
neuronal viability, compound alone (primary cortical neurons [2]): no effect | decrease in viable neurons caused by t-BuOOH, NMDA or glutamate (primary cortical neurons [3]; t-BHQ 20 μM): abolished | basal levels of caspase-3 activity (caspase-3; t-BHQ alone): no effect

SMILES: C=Cc1c2[n-]c(c1C)/C=c1\[n-]/c(c(C)c1C=C)=C\c1[n-]c(c(CCC(=O)O)c1C)C=c1[n-]/c(c(C)c1CCC(=O)O)=C\2.[Sn+4] [SnPPIX, Tin Protoporphyrin IX]
protective effect of EGb 761 against H2O2 in presence of HO inhibitor [4]: blocked the protective effect | protective effect of EGb 761 against glutamate in presence of inhibitor [5]: prevented the protective effect

SMILES: Cc1c2oc3c(C)ccc(C(=O)N[C@@H]4C(=O)N[C@H](C(C)C)C(=O)N5CCC[C@H]5C(=O)N(C)CC(=O)N(C)[C@@H](C(C)C)C(=O)O[C@@H]4C)c3nc-2c(C(=O)N[C@@H]2C(=O)N[C@H](C(C)C)C(=O)N3CCC[C@H]3C(=O)N(C)CC(=O)N(C)[C@@H](C(C)C)C(=O)O[C@@H]2C)c(N)c1=O [ATD, actinomycin D] (I: T[dV]P[Sar][NMeV] / II: T[dV]P[Sar][NMeV]; ester I:1-I:C, II:1-II:C; linker I:N-II:N via Actinocin(9to1))
HO-1 induction by EGb 761 in presence of inhibitor (HO-1): completely block

SMILES: C[C@@H]1C[C@@H]([C@H](O)CC2CC(=O)NC(=O)C2)C(=O)[C@@H](C)C1 [CHX, cycloheximide]
HO-1 induction by EGb 761 in presence of inhibitor (HO-1): completely block | protective effect of EGb 761 against glutamate in presence of inhibitor [5]: prevented the protective effect

SMILES: CN[C@H](CC(=O)O)C(=O)O [NMDA]
number of viable neurons vs untreated control (primary cortical neurons [3]; t-BuOOH 60 μM, NMDA 100 μM, glutamate 300 μM): significantly decreased | caspase-3 activity (caspase-3): induced an increase | Nrf2 in the cytosolic fraction (Nrf2): no effect | Nrf2 in the nuclear fraction (Nrf2): no effect

SMILES: CCOC(=O)CNC(=O)[C@H](CS)NC(=O)CC[C@H](N)C(=O)O [GSH-monoethyl ester]
NF-κB mediated reporter activity elicited by LPS or TNF-α (NF-κB): significantly attenuated

SMILES: CC(=O)N[C@@H](CS)C(=O)O [NAC, N-acetyl L-cysteine]
infiltration of inflammatory cells in the peribronchial and perivascular region [6]: marked reduction; also recorded: significant reduction | LPS induced mortality (% survival) vs vehicle-pretreated mice (nrf2−/− and nrf2+/+ mice; nrf2−/− and nrf2+/+ mice, NAC ip 500 mg/kg daily 4 days, 5 days): improved survival | mice surviving LPS induced septic shock (nrf2−/− and nrf2+/+ mice; nrf2−/− mice, NAC 500 mg/kg ip daily 4 days, saline-pretreated all died within 56 h): 40% | protection against LPS induced septic shock (nrf2−/− and nrf2+/+ mice; wild-type mice, NAC 500 mg/kg 4 days): modest protection | other cell types (macrophages, neutrophils, lymphocytes, epithelial cells) in BAL fluid ([7]; 24 h post 1st OVA challenge, NAC treatment): did not have any significant inhibitory effect | inflammatory cells in the BAL fluid ([7]; Nrf2−/− OVA mice, NAC pretreatment 7 days before 1st OVA challenge): significantly (*) reduced | total and differential cell counts in saline-challenged mice ([7]; saline-challenged mice treated with NAC vs untreated): did not differ

SMILES: CC(C)(C)OO [t-BuOOH, test-butyl hydroperoxide]
caspase-3 activity (caspase-3): induced an increase | Nrf2 in the cytosolic fraction (Nrf2): decreased to below the basal level after 30 minutes | Nrf2 in the nuclear fraction (Nrf2): elevated at 30 min
